{
  "source": "patent US9296732B2",
  "about": "“Substituted benzamides and their uses” (The Board of Trustees of the Leland Stanford Junior …, priority 2012, dated 2016)",
  "data": [
    {"test_system": "RCC4/VHL", "assay": "XTT cell viability assay, RCC4 with VHL-reintroduced (RCC4/VHL) versus RCC4, selectivity ratio", "format": "cell-based", "conditions": "first TABLE 1 (II series)", "procedure": "(§1) RCC4 parental and RCC4 with VHL-reintroduced (RCC4/VHL), SN12C and SN12C-CSCG-VHL shRNA were maintained in DMEM supplemented with 10% FCS.\n(§2) For 2,3-bis[2-methoxy-4-nitro-5-sulfophenyl]-2H-tetrazolium-5-carboxanilide (XTT) assays, five thousand cells were plated in 96-well plates. The next day, vehicle (DMSO) or drug was added by serial dilution. Four days later, media were aspirated, XTT solution (0.3 mg/ml of XTT (Sigma), 2.65 mg/ml N-methyl dibenxopyrazine methyl sulfate (Simga) in phenol red-free media) was added, and the plates were incubated at 37° C. for 1-2 hours. Metabolism of XTT was quantified by measuring the absorbance at 450 nm. IC50s were calculated using linear interpolation. For clonogenic survival assays, three hundred cells were plated per 60 mm tissue culture dish. The cells were allowed to attach overnight and then treated with vehicle or drug for 14 days. Colonies were fixed and stained with crystal violet (0.1% crystal violet in 95% ethanol). All conditions were measured in triplicate and each experiment was done in duplicate or triplicate. To determine necrosis, cells were treated with drug for a given time point. Media and cells were collected, centrifugated, and resuspended in 0.4% trypan blue (Invitrogen). Live and dead cells were counted on a hematocytometer.\n(§3) The designation A reflects an IC50 of <1 nM; B reflects an IC50 ranging from 1 to 20 nM; and C is an IC50 of >20 nM. The designation “a” reflects a ratio of RCC4/RCC-VHL+ ranging from 1 to ≦10; “b” reflects from 10 to ≦100; “c” reflects a ratio of >100. Compounds 1-29 have an IC50 value of ≦10 μM when tested in the above assay.", "values": [
      {"compound": "O=C(Nc1cccnc1)c1ccc(CNS(=O)(=O)c2cccnc2)cc1", "note": "[II-1, N-(3-Pyridinyl)-4-{[(3-pyridylsulfonyl)amino]methyl}benzamide]", "Ratio = IC50RCC4/VHL/IC50RCC4": "a (a ratio of RCC4/RCC-VHL+ ranging from 1 to ≦10)"},
      {"compound": "O=C(Nc1cccnc1)c1ccc(CNS(=O)(=O)c2ccc(Oc3ccccc3)nc2)cc1", "note": "[II-3, 4-({[(6-Phenoxy-3-pyridinyl)sulfonyl]amino}methyl)-N-(3-pyridinyl)benzamide]", "Ratio = IC50RCC4/VHL/IC50RCC4": "a (a ratio of RCC4/RCC-VHL+ ranging from 1 to ≦10)"},
      {"compound": "O=C(Nc1cccnc1)c1ccc(CNS(=O)(=O)c2cccs2)cc1", "note": "[II-4, N-(3-Pyridinyl)-4-{[(2-thienylsulfonyl)amino]methyl}benzamide]", "Ratio = IC50RCC4/VHL/IC50RCC4": "a (a ratio of RCC4/RCC-VHL+ ranging from 1 to ≦10)"},
      {"compound": "O=C(Nc1cccnc1)c1ccc(CNS(=O)(=O)c2ccsc2)cc1", "note": "[II-5, N-(3-Pyridinyl)-4-{[(3-thienylsulfonyl)amino]methyl}benzamide]", "Ratio = IC50RCC4/VHL/IC50RCC4": "a (a ratio of RCC4/RCC-VHL+ ranging from 1 to ≦10)"},
      {"compound": "O=C(Nc1cccnc1)c1ccc(CNS(=O)(=O)c2ccco2)cc1", "note": "[II-8, N-(3-Pyridinyl)-4-{[(2-furanylsulfonyl)amino]methyl}benzamide]", "Ratio = IC50RCC4/VHL/IC50RCC4": "a (a ratio of RCC4/RCC-VHL+ ranging from 1 to ≦10)"}
    ]},
    {"test_system": "RCC4/VHL", "assay": "XTT cell viability assay, RCC4 with VHL-reintroduced (RCC4/VHL) versus RCC4, selectivity ratio", "format": "cell-based", "conditions": "second TABLE 1 (Examples 39-55)", "procedure": "as §1, §2, §3", "values": [
      {"compound": "Cc1oc(-c2ccc(C(=O)NCc3cccnc3)cc2)nc1CS(=O)(=O)[C@H]1CC[C@@H](N)CC1", "note": "[Example 41, 4-(4-(((1s,4s)-4-aminocyclohexylsulfonyl)methyl)-5-methyloxazol-2-yl)-N-(pyridin-3-ylmethyl)benzamide]", "Ratio (IC50 RCC4 Proficient VHL)/IC50 RCC4 Deficient VHL)": "b (from 10 to ≦100)"},
      {"compound": "Cc1oc(-c2ccc(C(=O)NCc3cccnc3)cc2)nc1CS(=O)(=O)[C@H]1CC[C@H](N)CC1", "note": "[Example 44, 4-(4-[[(4-Aminocyclohexane)sulfonyl]methyl]-5-methyl-1,3-oxazol-2-yl)-N-(pyridin-3-ylmethyl)benzamide]", "Ratio (IC50 RCC4 Proficient VHL)/IC50 RCC4 Deficient VHL)": "b (from 10 to ≦100)"},
      {"compound": "Cc1oc(-c2ccc(C(=O)NCc3cccnc3)cc2)nc1CS(=O)(=O)[C@H]1CC[C@H](N2CCCC2)CC1", "note": "[Example 45]", "Ratio (IC50 RCC4 Proficient VHL)/IC50 RCC4 Deficient VHL)": "b (from 10 to ≦100)"},
      {"compound": "Cc1oc(-c2ccc(C(=O)NCc3cccnc3)cc2)nc1CS(=O)(=O)[C@H]1CC[C@H](N2CCCCC2)CC1", "note": "[Example 46]", "Ratio (IC50 RCC4 Proficient VHL)/IC50 RCC4 Deficient VHL)": "b (from 10 to ≦100)"},
      {"compound": "Cc1oc(-c2ccc(C(=O)NCc3cccnc3)cc2)nc1CS(=O)(=O)[C@H]1CC[C@H](N)C1", "note": "[Example 47]", "Ratio (IC50 RCC4 Proficient VHL)/IC50 RCC4 Deficient VHL)": "b (from 10 to ≦100)"},
      {"compound": "Cc1oc(-c2ccc(C(=O)NCc3cccnc3)cc2)nc1CS(=O)(=O)[C@H]1CC[C@H](N2CCCC2)C1", "note": "[Example 48]", "Ratio (IC50 RCC4 Proficient VHL)/IC50 RCC4 Deficient VHL)": "b (from 10 to ≦100)"},
      {"compound": "Cc1oc(-c2ccc(C(=O)NCc3cccnc3)cc2)nc1CS(=O)(=O)[C@H]1CC[C@H](N2CCCCC2)C1", "note": "[Example 49]", "Ratio (IC50 RCC4 Proficient VHL)/IC50 RCC4 Deficient VHL)": "b (from 10 to ≦100)"},
      {"compound": "Cc1oc(-c2ccc(C(=O)NCc3cccnc3)cc2)nc1CS(=O)(=O)[C@@H]1CC[C@H](N)C1", "note": "[Example 50]", "Ratio (IC50 RCC4 Proficient VHL)/IC50 RCC4 Deficient VHL)": "b (from 10 to ≦100)"},
      {"compound": "Cc1oc(-c2ccc(C(=O)NCc3cccnc3)cc2)nc1CS(=O)(=O)[C@@H]1CC[C@H](N2CCCC2)C1", "note": "[Example 51]", "Ratio (IC50 RCC4 Proficient VHL)/IC50 RCC4 Deficient VHL)": "b (from 10 to ≦100)"},
      {"compound": "Cc1oc(-c2ccc(C(=O)NCc3cccnc3)cc2)nc1CS(=O)(=O)[C@@H]1CC[C@H](N2CCCCC2)C1", "note": "[Example 52]", "Ratio (IC50 RCC4 Proficient VHL)/IC50 RCC4 Deficient VHL)": "a (a ratio of RCC4/RCC-VHL+ ranging from 1 to ≦10)"},
      {"compound": "Cc1oc(-c2ccc(C(=O)NCc3cccnc3)cc2)nc1CS(=O)(=O)C1CCN(CC(C)C)CC1", "note": "[Example 53, 4-(5-methyl-4-[[1-(2-methylpropyl)piperidine-4-sulfonyl]methyl]-1,3-oxazol-2-yl)-N-(pyridin-3-ylmethyl)benzamide]", "Ratio (IC50 RCC4 Proficient VHL)/IC50 RCC4 Deficient VHL)": "a (a ratio of RCC4/RCC-VHL+ ranging from 1 to ≦10)"},
      {"compound": "Cc1oc(-c2ccc(C(=O)NCc3cccnc3)cc2)nc1CS(=O)(=O)C1CCN(C2CCCC2)CC1", "note": "[Example 54]", "Ratio (IC50 RCC4 Proficient VHL)/IC50 RCC4 Deficient VHL)": "b (from 10 to ≦100)"},
      {"compound": "Cc1oc(-c2ccc(C(=O)NCc3cccnc3)cc2)nc1CS(=O)(=O)C1CCN(C2CCCCC2)CC1", "note": "[Example 55]", "Ratio (IC50 RCC4 Proficient VHL)/IC50 RCC4 Deficient VHL)": "a (a ratio of RCC4/RCC-VHL+ ranging from 1 to ≦10)"}
    ]},
    {"test_system": "RCC4", "assay": "XTT cell viability assay in RCC4 parental (VHL-deficient) cells", "format": "cell-based", "conditions": "Homo sapiens, 96 h, four days with drug, second TABLE 1 (Examples 39-55)", "procedure": "as §1, §2, §3", "units": {"IC50": "nM"}, "values": [
      {"compound": "Cc1oc(-c2ccc(C(=O)NCc3cccnc3)cc2)nc1CS(=O)(=O)[C@H]1CC[C@H](N2CCCCC2)C1", "note": "[Example 49]", "IC50": "< 1"},
      {"compound": "Cc1oc(-c2ccc(C(=O)NCc3cccnc3)cc2)nc1CS(=O)(=O)C1CCN(C2CCCCC2)CC1", "note": "[Example 55]", "IC50": "< 1"}
    ]},
    {"test_system": "RCC4", "assay": "XTT cell viability assay in RCC4 parental (VHL-deficient) cells", "format": "cell-based", "conditions": "four days with drug, second TABLE 1 (Examples 39-55)", "procedure": "as §1, §2, §3", "units": {"IC50": "nM"}, "values": [
      {"compound": "Cc1oc(-c2ccc(C(=O)NCc3cccnc3)cc2)nc1CS(=O)(=O)[C@H]1CC[C@@H](N)CC1", "note": "[Example 41, 4-(4-(((1s,4s)-4-aminocyclohexylsulfonyl)methyl)-5-methyloxazol-2-yl)-N-(pyridin-3-ylmethyl)benzamide]", "IC50": "> 20"}
    ]}
  ]
}
